Measurements from patent US20150057465A1, “CONTROL OF GROWTH-INDUCTION-PRODUCTION PHASES” (OPX BIOTECHNOLOGIES, INC., priority 2013, published 2015).
“Also recorded” adds a separate entry of the source. Read-outs that look alike come from different tables or passages of the source.

B1: rhtA: chemical exporter from E. coli characterized for homoserine transport; mutant rhtA(P2S), SEQ ID NO. 30, 31, overexpressed (protein)
chain: MSGSLRKMPVWLPIVILLVAMASIQGGASLAKSLFPLVGAPGVTALRLALGTLILIAFFKPWRLRFAKEQRLPLLFYGVSLGGMNYLFYLSIQTVPLGIAVALEFTGPLAVALFSSRRPVDFVWVVLAVLGLWFLLPLGQDVSHVDLTGCALALGAGACWAIYILSGQRAGAEHGPATVAIGSLIAALIFVPIGALQAGEALWHWSVIPLGLAVAILSTALPYSLEMIALTRLPTRTFGTLMSMEPALAAVSGMIFLGETLTPIQLLALGAIIAASMGSTLTVRKESKIKELDIN
notes: chemical exporter from E. coli characterized for homoserine transport; 30, 31, overexpressed

How the values were obtained:
E. coli ACCase = E. coli ACCase (Escherichia coli, UniProt P0A9Q5+P0ABD5+P0ABD8+P24182); conditions: for effect of salt on ACCase activity: E. coli ACCase, dose-dependent studies, FIG. 4; for decrease of the activity of the ACCase enzyme: relative to control (FIG. 4)
Sequence of E. coli ACCase (P0A9Q5 whole entry): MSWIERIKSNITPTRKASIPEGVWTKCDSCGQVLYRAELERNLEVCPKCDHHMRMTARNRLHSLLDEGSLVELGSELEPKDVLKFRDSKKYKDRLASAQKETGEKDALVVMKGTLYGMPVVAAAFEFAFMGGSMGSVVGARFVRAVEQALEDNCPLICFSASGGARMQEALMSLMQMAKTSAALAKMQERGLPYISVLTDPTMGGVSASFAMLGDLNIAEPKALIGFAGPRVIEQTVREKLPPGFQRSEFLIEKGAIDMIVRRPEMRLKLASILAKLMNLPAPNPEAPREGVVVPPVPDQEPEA
Sequence of E. coli ACCase (P0ABD5 whole entry): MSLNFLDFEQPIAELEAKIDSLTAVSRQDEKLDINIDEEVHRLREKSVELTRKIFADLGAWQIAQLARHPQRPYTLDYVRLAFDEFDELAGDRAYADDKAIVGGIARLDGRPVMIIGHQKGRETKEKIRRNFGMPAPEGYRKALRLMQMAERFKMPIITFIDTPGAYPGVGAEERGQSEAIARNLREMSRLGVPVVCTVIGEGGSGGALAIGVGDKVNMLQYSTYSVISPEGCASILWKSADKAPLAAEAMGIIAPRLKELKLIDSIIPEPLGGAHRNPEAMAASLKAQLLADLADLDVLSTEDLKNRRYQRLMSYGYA
Protocol: Levels of greater than 0.66M (60 g/L) are expected to be present for commercially viable commercial production of 3-HP.
Each gene was amplified by PCRs with Pfu Ultra II HS using the manufacturer's instructions, and the PCR products were purified using the Zymo PCR Cleanup kit. Concentrations of products were measured using the Nanodrop spectophotometer. The Gibson Assembly kit (NEB) was used to construct plasmids expressing the ACCase subunit genes as directed by the manufacturer. The effect of NH4-3-HP and NH4Cl on H. elongata ACCase was tested and compared to the E. coli ACCase.

H. elongata ACCase = assay: Salt inhibition of H. elongata ACCase activity; format: biochemical, Halomonas elongata; conditions: ACCase from the halophile H. elongata, compared to E. coli ACCase, FIG. 4
Protocol: Accordingly, the genes encoding the accA, accB, accC, accD of H. elongata described in Table 1 were synthesized for expression in E. coli using codons optimized for this organism and supplied individually on pUC57 plasmids without promoters. Synthetic operons comprising the subunits were assembled using the Gibson assembly method.
Concentrations of products were measured using the Nanodrop spectophotometer.

E. coli strains = assay: Growth inhibition of E. coli strains grown in the presence of 3-HP; format: cell-based
3HP titer = assay: 1 L fermentation with overexpression of rhtA exporter, 3HP titer; format: cell-based, E. coli; conditions: compared to control plasmid without rhtA, FIG. 7
Protocol: A known chemical exporter from E. coli that has been previously characterized for homoserine transport, rhtA, was evaluated for increased production of 3-HP. A mutant version of the exporter, rhtA(P2S) (SEQ ID NO. 30 nucleic acid, SEQ ID NO. 31 protein) was synthesized behind the PtpiA promoter and inserted into the pTRC-PyibD-MCR plasmid behind a terminator using the Gibson Assemply kit (NEB) according to manufacturer's instructions. The effects of overexpression of rhtA were evaluated in 1 L fermentation compared to the control plasmid without rhtA. […] Construction of plasmids expressing another putative transporter, ydcO (SEQ ID NO. 32 nucleic acid, SEQ ID NO. 33 protein) is carried out in the same manner.

[1] = salts of 3-HP levels near 0.66M

| Molecule | effect of salt on ACCase activity (E. coli ACCase) | decrease of the activity of the ACCase enzyme (E. coli ACCase; salt levels near 0.44M) | decrease of the activity of the ACCase enzyme (E. coli ACCase; [1]) | effect of salt on ACCase activity (H. elongata ACCase) | also measured |
| --- | --- | --- | --- | --- | --- |
| [Cl-].[Na+] [NaCl] | inhibitory effects | approximately 80% |  |  |  |
| O=C([O-])CCO.[Na+] [Na-3-HP] | inhibitory effects |  | approximately 80% |  |  |
| N.O=C(O)CCO [NH4-3-HP] | significantly inhibited |  | approximately 80% | less affected |  |
| Cl.N [NH4Cl] | significantly inhibited | approximately 80% |  | less affected |  |
| O=C(O)CCO [3-HP, 3-hydroxypropionic acid] |  |  |  |  | 3-HP level at which growth inhibition was demonstrated (E. coli strains): ≥ 20 g/L |
| B1 |  |  |  |  | 3HP titer (3HP titer): improved production of 3-HP; also recorded: significant improvement in 3HP titer |
